# Data: patent US6929790B2, “Compositions to control oral microbial oxidation-reduction (Eh) levels” (priority 1996, dated 2005)
# What was measured:
# [1] = system: mixed bacteria in salivary sediment; test: Eh lowering by amino acids or salivary supernatant in the salivary sediment system; details: 3 mM amino acid, 16.7% salivary sediment, 60 mM phosphate buffer, 37° C., up to 24 hours; for Lowest Eh reached, Group B: Group B (next lowest Eh); for Lowest Eh reached, Group A: Group A (highest Eh levels)
# Source text: This model utilizes the mixed oral bacteria collected in the salivary sediment obtained from whole saliva by centrifugation. […] This model is recognized in the art as an effective proxy to study the microbial metabolic and related biochemical processes of the oral cavity.
# (§1) To collect salivary sediment and salivary supernatant for the assay, saliva stimulated by chewing paraffin wax was expectorated into test-tubes chilled in cracked ice. […] Following collection, the saliva was centrifuged at 1740×g for 15 minutes and the supernatant was subsequently removed by pipette and kept on ice until the assay was run. Next, the sediment was washed three times with ice cold distilled water to remove any residual salivary supernatant. The washed salivary sediment was chilled in crushed ice until the assay was run. Prior to incubating the samples and running the assay, the washed salivary sediment was re-suspended in distilled water to a final concentration of 50 percent (V/V).
# A control tube contained sediment and water.
# (§2) The oxidation-reduction potential (Eh) was determined in each incubation mixture using a platinum electrode and a potassium chloride salt bridge leading to a calomel reference electrode connected to a pH meter used as a millivoltmeter.
# [2] = system: soft tissues of the oral cavity; details: cited from earlier work
# [3] = 25° C.; cited from earlier work
# mixed oral bacteria = test: Eh during incubation of salivary sediment and salivary supernatant with zinc chloride and/or hydrogen peroxide (Example II); details: zinc chloride 6.0 mM (0.08%), hydrogen peroxide 0.5%, 37° C., 24 hours
# Description: as §1, §2
# A tube was prepared containing salivary sediment and salivary supernatant only (water control).
# oral bacteria [4] = test: In vivo cysteine rinse challenge, VSC (Halimeter) and tongue Eh before and after test rinse (Examples IV-VII); parameters: species or system human subjects
# Description: The ability of a zinc chloride rinse solution to reduce or prevent the formation of volatile sulfur compounds (VSC) in vivo following successive challenges with a cysteine rinse was studied in this Example. The rinse solution consisted of zinc chloride at 6 mM (0.08%). […] The subject rinsed his/her mouth with 5 ml of a 6 mM cysteine solution for 30 seconds to stimulate substantial VSC production by the oral bacteria. […] Before and following the rinse, a Halimeter instrument was used to measure the volatile sulfur compounds (VSC) produced. Simultaneously, a platinum electrode was placed on the posterior dorsum surface of the tongue, just anterior to the circumvallate papillae to measure the Eh. After 20 minutes, the subject rinsed his/her mouth with 5 ml of the zinc chloride solution for 30 seconds. Again, the VSC of the subject's mouth air and the Eh were measured. The subject then rinsed successively with the 6 mM cysteine solution at 40, 60, 140, 320 and 380 minutes and the VSC and Eh of the subject's oral cavity were re-measured each time (see FIG. 5) using the Halimeter and the platinum electrode.
# (§3) As before, 5 ml of the zinc/peroxide/chloride ion composition of this invention was applied as a rinse for 30 seconds.
# as §3
# The abilities of 0.1% sodium chlorite rinse solutions, one without and one with zinc chloride at 6 mM (0.08%) were compared in this Example for their abilities to reduce or prevent the formation of VSC in vivo following successive challenges with a cysteine rinse as before. The oral rinse consisted of application of 5 ml for 30 seconds of either an 0.1% sodium chlorite solution or an 0.1% sodium chlorite solution to which zinc chloride at 0.08% had been added.
# oral bacteria [5] = test: Zinc ion concentration versus rate of volatile sulfur compound production from cysteine (FIG. 1); assay type: cell-based; details: inhibition is exponential
# Source text: Inhibition is exponential and occurs maximally once the zinc ion concentration reaches about 0.2%.
molecule,measurement,setting,value
N=C(N)NCCC[C@H](N)C(=O)O [arginine],"Lowest Eh reached, Group B",[1],25 millivolts
N[C@@H](CC(=O)O)C(=O)O [aspartic],"Lowest Eh reached, Group A",[1],80 millivolts
N[C@@H](CCC(=O)O)C(=O)O [glutamic],"Lowest Eh reached, Group B",[1],30 millivolts
OO [hydrogen peroxide],Hydrogen peroxide concentration above which it can be harmful to the soft tissues of the oral cavity,[2],3.0 to 3.5%
NCCCC[C@H](N)C(=O)O [lysine],"Lowest Eh reached, Group A",[1],95 millivolts
NCCC[C@H](N)C(=O)O [ornithine],"Lowest Eh reached, Group B",[1],55 millivolts
N[C@@H](Cc1ccccc1)C(=O)O [phenylalanine],"Lowest Eh reached, Group A",[1],100 millivolts
N[C@@H](Cc1ccc(O)cc1)C(=O)O [tyrosine],"Lowest Eh reached, Group B",[1],40 millivolts
[Cl-].[Cl-].[Zn+2] [zinc chloride],Solubility,[3],432 @ 25 °C g/100 cc
same,Decrease in the Eh during incubation,mixed oral bacteria,some decrease in the Eh
same,Eh of the incubation mixture compared to salivary supernatant plus salivary sediment control,mixed oral bacteria,significantly raised the Eh
same,Time for which the VSC response to subsequent cysteine rinses was retarded,"oral bacteria [4]; Example IV, zinc chloride 6 mM (0.08%), 5 ml rinse for 30 seconds",about 5 hours
same,VSC response to cysteine rinsing,"oral bacteria [4]; Example IV, zinc chloride 6 mM (0.08%), 5 ml rinse for 30 seconds, 6 mM cysteine challenges",reduced the ability of the oral bacteria to produce the VSC response to cysteine rinsing
same,Eh during rinsing,"oral bacteria [4]; Example IV, zinc chloride 6 mM (0.08%), platinum electrode on tongue dorsum",raised to a small degree
[Zn+2] [zinc ion],Zinc ion concentration at which inhibition of volatile sulfur compound production from cysteine is maximal,oral bacteria [5],about 0.2%
sodium chlorite,Inhibition of VSC production,"oral bacteria [4]; Example VII, 0.1% sodium chlorite solution, 5 ml for 30 seconds",no inhibition of VSC production
